Data taken from ChEMBL document CHEMBL1287642, “Synthesis, antiviral activity and cytotoxicity evaluation of Schiff bases of some 2-phenyl quinazoline-4(3)H-ones” (Eur J Med Chem, 2010).
Values after ≈ are worked out from the molar mass of the structure shown.

Tested on: Vaccinia virus
Experiment: Antiviral activity against Vaccinia virus infected in human HEL cells assessed as protection against virus-induced cytopathogenicity after 2 days
Assay type: functional, organism-based
Conditions: Orthopoxvirus vaccinia, 48 h

| Compound | EC50 [µg/mL] |
| --- | --- |
| O=c1[nH]c(=O)n([C@H]2C[C@H](O)[C@@H](CO)O2)cc1/C=C/Br [BRIVUDINE] | 4 (≈ 12 µM) |
| COc1ccc(/C=N/n2c(-c3ccccc3)nc3ccccc3c2=O)cc1 | 9 (≈ 25.3 µM) |
| Nc1ccn(C[C@@H](CO)OCP(=O)(O)O)c(=O)n1.O.O [CIDOFOVIR] | 8 |
| Nc1nc2c(ncn2COC(CO)CO)c(=O)[nH]1 [GANCICLOVIR] | > 100 |
| C/C(=N\n1c(-c2ccccc2)nc2ccccc2c1=O)c1ccc(O)cc1 | > 100 |
| O=c1c2ccccc2nc(-c2ccccc2)n1/N=C/c1ccccc1O | 0.8 (≈ 2.34 µM) |
| COc1ccccc1/C=N/n1c(-c2ccccc2)nc2ccccc2c1=O | > 20 |
| O=c1c2ccccc2nc(-c2ccccc2)n1/N=C/c1cccc([N+](=O)[O-])c1 | > 20 |
| COc1ccc(/C=N/n2c(-c3ccccc3)nc3ccccc3c2=O)cc1O | 20 (≈ 53.9 µM) |
| O=c1c2ccccc2nc(-c2ccccc2)n1/N=C/c1ccc(O)cc1 | 12 (≈ 35.2 µM) |
| O=c1c2ccccc2nc(-c2ccccc2)n1/N=C/c1ccccc1 | 9 (≈ 27.7 µM) |
| C/C(=N\n1c(-c2ccccc2)nc2ccccc2c1=O)c1ccccc1 | > 100 |
| NC(=O)c1ncn([C@@H]2O[C@H](CO)[C@@H](O)[C@H]2O)n1 [RIBAVIRIN] | > 250 |
| O=c1c2ccccc2nc(-c2ccccc2)n1/N=C/c1ccc(Cl)cc1 | 20 (≈ 55.6 µM) |
